Data reported in patent publication US12698507B2, “Methods and compositions for conferring and/or enhancing herbicide tolerance using protoporphyrinogen IX oxidase of various cyanobacteria or variant thereof” (FarmHannong Co., Ltd., priority 2019, dated 2026).
Read-outs that look alike come from different tables or passages of the source.

Tests used:
[1] = tested on: PPO-deficient BT3 E. coli (ΔPPO) transformed with CyPPO19 variant R89A+F360I (Thermosynechococcus elongatus PKUAC-SCTE542, SEQ ID NO: 1); assay: Herbicide tolerance test in E. coli, CyPPO19 R89A+F360I; assay type: cell-based; details: LB agar, 0 to 2,000 μM herbicide, 37° C., 16-20 hours
Excerpt: (§1) To enhance the PPO-inhibiting herbicide resistance of CyPPO19 and CyPPO18, PPO variant genes of the above example 2 were constructed. They were transformed to BT3 (ΔPPO) strain which is deficient of PPO activity and cultured in LB media with PPO-inhibiting herbicide, thereby examining whether growth of transformed BT3 was not inhibited.
(§2) BT3 competent cells were transformed with the pET303-CyPPO19 (wild type), pET303-CyPPO18 (wild type) plasmids, and those with a mutation(s) constructed (refer to example 2) via heat shock method, and were cultured in LB agar media containing ampicillin.
(§3) Single colony transformed with each CyPPO gene was cultured in 3 mL of LB broth (LPSS) containing ampicillin for more than 12 hours, and then was subcultured in LB broth until absorbance (OD600) reached 0.5 to 1. Then, it was diluted with LB broth to OD600=0.5. Again, the diluted solution was serially diluted 4 times by a factor of one tenth. […]
(§4) Then, 10 μL of each diluted solution of E. coli was dropped on the plate and cultured at 37° C. under dark for 16-20 hours. PPO-inhibiting herbicide resistance was evaluated with the extent of E. coli growth containing each gene was observed.
(§5) The extent of herbicide resistance was evaluated by the relative growth of variants to that of wild type, and listed in Tables 9 and 10 and FIGS. 3 to 32. […]

[2] = target: Thermosynechococcus vulcanus NIES-2134 protoporphyrinogen IX oxidase CyPPO18 (SEQ ID NO: 3) variant V165S (MBP fusion) (Thermosynechococcus vestitus, UniProt Q8DLV2, V165S); assay: PPO enzyme inhibition assay (IC50 for herbicides), CyPPO18 V165S fused to MBP; assay type: biochemical; details: 50 μM protoporphyrinogen IX, pH 7.5, room temperature, 30 min
[3] = target: Thermosynechococcus elongatus PKUAC-SCTE542 protoporphyrinogen IX oxidase CyPPO19 (SEQ ID NO: 1) variant V165C (MBP fusion) (Thermosynechococcus sichuanensis, UniProt A0A7D6JSC1, V165C); assay: PPO enzyme inhibition assay (IC50 for herbicides), CyPPO19 V165C fused to MBP; assay type: biochemical
[4] = tested on: PPO-deficient BT3 E. coli (ΔPPO) transformed with CyPPO19 variant V165C+F360M (Thermosynechococcus elongatus PKUAC-SCTE542, SEQ ID NO: 1); assay: Herbicide tolerance test in E. coli, CyPPO19 V165C+F360M; assay type: cell-based; details: LB agar, 0 to 2,000 μM herbicide, 37° C., 16-20 hours
Excerpt: as §1, §2, §3, §4, §5

[5] = target: Thermosynechococcus vulcanus NIES-2134 protoporphyrinogen IX oxidase CyPPO18 (SEQ ID NO: 3) variant A167L (MBP fusion) (Thermosynechococcus vestitus, UniProt Q8DLV2, A167L); assay: PPO enzyme inhibition assay (IC50 for herbicides), CyPPO18 A167L fused to MBP; assay type: biochemical; details: 50 μM protoporphyrinogen IX, pH 7.5, room temperature, 30 min
[6] = tested on: PPO-deficient BT3 E. coli (ΔPPO) transformed with CyPPO18 variant A167L+F360I (Thermosynechococcus vulcanus NIES-2134, SEQ ID NO: 3); assay: Herbicide tolerance test in E. coli, CyPPO18 A167L+F360I; assay type: cell-based; details: LB agar, 0 to 2,000 μM herbicide, 37° C., 16-20 hours
Excerpt: as §1, §2, §3, §4, §5

[7] = target: Thermosynechococcus vulcanus NIES-2134 protoporphyrinogen IX oxidase CyPPO18, wild type, SEQ ID NO: 3 (MBP fusion) (Thermosynechococcus vestitus, UniProt Q8DLV2); assay type: biochemical; details: CyPPO18 WT; 50 μM protoporphyrinogen IX, pH 7.5, room temperature, 30 min
[8] = tested on: PPO-deficient BT3 E. coli (ΔPPO) transformed with CyPPO18 variant R89A+V165C+F360I (Thermosynechococcus vulcanus NIES-2134, SEQ ID NO: 3); assay: Herbicide tolerance test in E. coli, CyPPO18 R89A+V165C+F360I; assay type: cell-based; parameters: key to the marks not given beside the values; details: LB agar, 0 to 2,000 μM herbicide, 37° C., 16-20 hours
Excerpt: as §1, §2, §3, §4, §5

[9] = target: Thermosynechococcus elongatus PKUAC-SCTE542 protoporphyrinogen IX oxidase CyPPO19 (SEQ ID NO: 1) variant R89A (MBP fusion) (Thermosynechococcus sichuanensis, UniProt A0A7D6JSC1, R89A); assay: biochemical
[10] = target: Thermosynechococcus vulcanus NIES-2134 protoporphyrinogen IX oxidase CyPPO18 (SEQ ID NO: 3) variant R89A (MBP fusion) (Thermosynechococcus vestitus, UniProt Q8DLV2, R89A); assay: PPO enzyme inhibition assay (IC50 for herbicides), CyPPO18 R89A fused to MBP; assay type: biochemical; details: 50 μM protoporphyrinogen IX, pH 7.5, room temperature, 30 min
[11] = tested on: PPO-deficient BT3 E. coli (ΔPPO) transformed with CyPPO18 variant V165C+A167L+F360I (Thermosynechococcus vulcanus NIES-2134, SEQ ID NO: 3); assay: Herbicide tolerance test in E. coli, CyPPO18 V165C+A167L+F360I; assay type: cell-based; parameters: key to the marks not given beside the values; details: LB agar, 0 to 2,000 μM herbicide, 37° C., 16-20 hours
Excerpt: as §1, §2, §3, §4, §5

[12] = tested on: PPO-deficient BT3 E. coli (ΔPPO) transformed with CyPPO19 variant V165C+F360I (Thermosynechococcus elongatus PKUAC-SCTE542, SEQ ID NO: 1); assay: Herbicide tolerance test in E. coli, CyPPO19 V165C+F360I; assay type: cell-based; details: LB agar, 0 to 2,000 μM herbicide, 37° C., 16-20 hours
Excerpt: as §1, §2, §3, §4, §5

[13] = target: Thermosynechococcus vulcanus NIES-2134 protoporphyrinogen IX oxidase CyPPO18 (SEQ ID NO: 3) variant V305M (MBP fusion) (Thermosynechococcus vestitus, UniProt Q8DLV2, V305M); assay: PPO enzyme inhibition assay (IC50 for herbicides), CyPPO18 V305M fused to MBP; assay type: biochemical; details: 50 μM protoporphyrinogen IX, pH 7.5, room temperature, 30 min
[14] = tested on: PPO-deficient BT3 E. coli (ΔPPO) transformed with CyPPO19 variant V165C+F360V (Thermosynechococcus elongatus PKUAC-SCTE542, SEQ ID NO: 1); assay: Herbicide tolerance test in E. coli, CyPPO19 V165C+F360V; assay type: cell-based; details: LB agar, 0 to 2,000 μM herbicide, 37° C., 16-20 hours
Excerpt: as §1, §2, §3, §4, §5

[15] = target: Thermosynechococcus elongatus PKUAC-SCTE542 protoporphyrinogen IX oxidase CyPPO19 (SEQ ID NO: 1) variant V165S (MBP fusion) (Thermosynechococcus sichuanensis, UniProt A0A7D6JSC1, V165S); assay: biochemical; details: 50 μM protoporphyrinogen IX, pH 7.5, room temperature, 30 min, 10,000 means equivalent to or higher
Sequence of Thermosynechococcus elongatus PKUAC-SCTE542 protoporphyrinogen IX oxidase CyPPO19 (SEQ ID NO: 1) variant V165S (MBP fusion) (A0A7D6JSC1 entry or part of it V165S): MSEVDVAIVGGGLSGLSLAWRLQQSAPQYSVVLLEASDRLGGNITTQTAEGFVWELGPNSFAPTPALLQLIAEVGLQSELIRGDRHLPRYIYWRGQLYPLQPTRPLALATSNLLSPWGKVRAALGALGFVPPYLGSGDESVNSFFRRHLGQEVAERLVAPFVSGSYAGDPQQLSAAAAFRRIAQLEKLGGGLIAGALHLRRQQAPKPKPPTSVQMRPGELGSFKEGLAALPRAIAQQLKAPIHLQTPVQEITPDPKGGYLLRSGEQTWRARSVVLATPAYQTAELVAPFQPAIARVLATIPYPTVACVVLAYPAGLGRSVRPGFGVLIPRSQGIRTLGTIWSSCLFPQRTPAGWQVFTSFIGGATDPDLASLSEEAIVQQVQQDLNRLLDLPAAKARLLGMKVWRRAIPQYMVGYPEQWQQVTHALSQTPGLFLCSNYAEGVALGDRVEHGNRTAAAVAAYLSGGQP

Sequence of Thermosynechococcus elongatus PKUAC-SCTE542 protoporphyrinogen IX oxidase CyPPO19 (SEQ ID NO: 1) variant V165C (MBP fusion) (A0A7D6JSC1 entry or part of it V165C): as the sequence (A0A7D6JSC1 entry or part of it V165S) above, with S165C counted along it
Sequence of Thermosynechococcus vulcanus NIES-2134 protoporphyrinogen IX oxidase CyPPO18 (SEQ ID NO: 3) variant V165S (MBP fusion) (Q8DLV2 entry or part of it V165S): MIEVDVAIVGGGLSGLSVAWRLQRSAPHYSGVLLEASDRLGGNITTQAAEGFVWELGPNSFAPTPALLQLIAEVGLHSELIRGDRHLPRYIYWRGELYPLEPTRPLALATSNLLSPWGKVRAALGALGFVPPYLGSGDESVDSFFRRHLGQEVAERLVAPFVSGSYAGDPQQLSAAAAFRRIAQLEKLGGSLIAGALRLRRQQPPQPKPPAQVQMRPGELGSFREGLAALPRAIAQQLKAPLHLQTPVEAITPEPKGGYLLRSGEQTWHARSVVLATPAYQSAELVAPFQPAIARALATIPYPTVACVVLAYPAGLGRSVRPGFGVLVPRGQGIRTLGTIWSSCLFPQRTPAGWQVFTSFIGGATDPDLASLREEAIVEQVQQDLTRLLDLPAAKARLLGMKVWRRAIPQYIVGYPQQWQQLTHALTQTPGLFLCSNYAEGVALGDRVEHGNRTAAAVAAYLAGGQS
Sequence of Thermosynechococcus vulcanus NIES-2134 protoporphyrinogen IX oxidase CyPPO18 (SEQ ID NO: 3) variant R89A (MBP fusion) (Q8DLV2 entry or part of it R89A): as the sequence (Q8DLV2 entry or part of it V165S) above, with R89A, S165V counted along it
Sequence of Thermosynechococcus vulcanus NIES-2134 protoporphyrinogen IX oxidase CyPPO18, wild type, SEQ ID NO: 3 (MBP fusion) (Q8DLV2 entry or part of it): as the sequence (Q8DLV2 entry or part of it V165S) above, with S165V counted along it
Sequence of Thermosynechococcus elongatus PKUAC-SCTE542 protoporphyrinogen IX oxidase CyPPO19 (SEQ ID NO: 1) variant R89A (MBP fusion) (A0A7D6JSC1 entry or part of it R89A): as the sequence (A0A7D6JSC1 entry or part of it V165S) above, with R89A, S165V counted along it
Sequence of Thermosynechococcus vulcanus NIES-2134 protoporphyrinogen IX oxidase CyPPO18 (SEQ ID NO: 3) variant A167L (MBP fusion) (Q8DLV2 entry or part of it A167L): as the sequence (Q8DLV2 entry or part of it V165S) above, with S165V, A167L counted along it
Sequence of Thermosynechococcus vulcanus NIES-2134 protoporphyrinogen IX oxidase CyPPO18 (SEQ ID NO: 3) variant V305M (MBP fusion) (Q8DLV2 entry or part of it V305M): as the sequence (Q8DLV2 entry or part of it V165S) above, with S165V, V305M counted along it

| SMILES | tolerance level (relative growth of variant to wild type) [1] | IC50 [2] | IC50 [3] | tolerance level (relative growth of variant to wild type) [4] | IC50 [5] | tolerance level (relative growth of variant to wild type) [6] | IC50 [7] | tolerance level (relative growth of variant to wild type) [8] | IC50 [9] | IC50 [10] | tolerance level (relative growth of variant to wild type) [11] | tolerance level (relative growth of variant to wild type) [12] | IC50 [13] | tolerance level (relative growth of variant to wild type) [14] | IC50 ([15]; read-out: IC50) | IC50 ([3]; CyPPO19 V165C, 50 μM protoporphyrinogen IX, pH 7.5, room temperature, 30 min) | IC50 ([9]; CyPPO19 R89A, 50 μM protoporphyrinogen IX, pH 7.5, room temperature, 30 min) | IC50 [15] |
| --- | --- | --- | --- | --- | --- | --- | --- | --- | --- | --- | --- | --- | --- | --- | --- | --- | --- | --- |
| CCOc1cc(Oc2ccc(C(F)(F)F)cc2Cl)ccc1[N+](=O)[O-] [Oxyfluorfen] | + | 1490 nM | 3210 nM | ++ | 2810 nM | + | 103 nM | ++ | 602 nM | 491 nM | ++ | + | 355 nM | ++ | 1670 nM | – | – | – |
| Cc1nn(-c2cc(CC(Cl)C(=O)O)c(Cl)cc2F)c(=O)n1C(F)F (stereo not drawn) [Carfentrazone] | + | 2230 nM | – | + | 4010 nM | ++ | 566 nM | ++ | – | 872 nM | ++ | + | 1610 nM | + | – | 3090 nM | 857 nM | ≥ 10000 nM |
